Test results taken from ChEMBL document CHEMBL1201862, “PubChem BioAssay data set” (2004).
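Dose response: 5 concentrations. Exposure: 48 h. Format: 96-well plates. Endpoint: linear interpolation; highest concentration if not reached. Abbreviation: GI50, concentration required for 50% inhibition of growth.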 Active and inactive are the calls of the source. Rule as the data show it: active = GI50 up to about 1.1 µM and inactive = higher.

What was measured:
Test in all cases: NCI tumour cell line growth inhibition, 48 h
[1] = test system: NCI/ADR-RES
[2] = test system: OVCAR-4
[3] = test system: UACC-62
[4] = test system: UO-31
[5] = test system: SF-268
[6] = test system: HL-60
[7] = test system: T47D
[8] = test system: OVCAR-8
[9] = test system: MDA-MB-231
[10] = test system: HT-29
[11] = test system: CAKI-1
[12] = test system: SK-MEL-5
[13] = test system: COLO 205
[14] = test system: A498
[15] = test system: DU-145
[16] = test system: CCRF-CEM
[17] = test system: RPMI-8226
[18] = test system: SK-MEL-28
[19] = test system: SF-295
[20] = test system: TK-10

SMILES	GI50 [1]	GI50 [2]	GI50 [3]	GI50 [4]	GI50 [5]	GI50 [6]	GI50 [7]	GI50 [8]	GI50 [9]	GI50 [10]	GI50 [11]	GI50 [12]	GI50 [13]	GI50 [14]	GI50 [15]	GI50 [16]	GI50 [17]	GI50 [18]	GI50 [19]	GI50 [20]
C=CCOc1cc(NC(=S)c2ccoc2C)ccc1OC	> 100 µM (inactive)	> 100 µM (inactive)	> 100 µM (inactive)	> 100 µM (inactive)	> 100 µM (inactive)	> 100 µM (inactive)	> 100 µM (inactive)	> 100 µM (inactive)	> 100 µM (inactive)	> 100 µM (inactive)	> 100 µM (inactive)	> 100 µM (inactive)	> 100 µM (inactive)	> 100 µM (inactive)	> 100 µM (inactive)	> 100 µM (inactive)	> 100 µM (inactive)	> 100 µM (inactive)	> 100 µM (inactive)	
COc1ccc(N2C(=O)CC(c3c[nH]c4ncccc34)C2=O)cc1 (stereo not drawn)	> 53 µM (inactive)	22.8 µM (inactive)	> 50.9 µM (inactive)	32.4 µM (inactive)	> 100 µM (inactive)	11.5 µM (inactive)	24.1 µM (inactive)	19.7 µM (inactive)	20 µM (inactive)	19.8 µM (inactive)	19.7 µM (inactive)	> 100 µM (inactive)	18.8 µM (inactive)	58.5 µM (inactive)	> 100 µM (inactive)	6.4 µM (inactive)	> 100 µM (inactive)	29 µM (inactive)	> 100 µM (inactive)	14.2 µM (inactive)
CC(=O)CCN1CC2CN=NC2(C#N)C1 (stereo not drawn)	> 100 µM (inactive)	> 100 µM (inactive)	> 100 µM (inactive)	> 100 µM (inactive)	> 100 µM (inactive)	14.3 µM (inactive)	35.6 µM (inactive)	> 100 µM (inactive)	> 100 µM (inactive)	> 100 µM (inactive)	0.379 µM (active)	> 100 µM (inactive)	36.2 µM (inactive)	> 100 µM (inactive)	> 100 µM (inactive)	15.9 µM (inactive)		> 100 µM (inactive)	> 100 µM (inactive)	> 100 µM (inactive)
CCOC(=O)C(O)(C(=O)OCC)c1cc(C(C)(C)C)c(O)c(C(C)(C)C)c1	18.6 µM (inactive)	> 100 µM (inactive)	22.9 µM (inactive)	52.2 µM (inactive)	40.7 µM (inactive)	25.5 µM (inactive)	62.2 µM (inactive)	15.5 µM (inactive)	53 µM (inactive)	28.1 µM (inactive)	41.2 µM (inactive)	17.8 µM (inactive)	36.1 µM (inactive)	50.8 µM (inactive)	92 µM (inactive)	37.2 µM (inactive)	26.1 µM (inactive)	31.8 µM (inactive)	22.5 µM (inactive)	34.5 µM (inactive)
CN(C)CCCNc1c2c(=O)n(C)c(=O)nc-2n(C)c2ccccc12	67 µM (inactive)	4.72 µM (inactive)	5.22 µM (inactive)	4.51 µM (inactive)	5.38 µM (inactive)	0.966 µM (active)	5.12 µM (inactive)	4.83 µM (inactive)	6 µM (inactive)	4.26 µM (inactive)	7.13 µM (inactive)	6.21 µM (inactive)	3.21 µM (inactive)	9.27 µM (inactive)	6.41 µM (inactive)	3.4 µM (inactive)	7.1 µM (inactive)	10.4 µM (inactive)	6.43 µM (inactive)	5.26 µM (inactive)
C[C@H](CC[C@@H](O)C(C)(C)O)[C@H]1CC[C@@]2(C)[C@@H]3CC=C4[C@@H](CC[C@H](OC5OC(CO)C(O)C(O)C5O)C4(C)C)[C@]3(C)C(=O)C[C@]12C (stereo partly drawn)	> 100 µM (inactive)	45.3 µM (inactive)	58.1 µM (inactive)	28.9 µM (inactive)	57.7 µM (inactive)	20.7 µM (inactive)	97.9 µM (inactive)	> 100 µM (inactive)	> 100 µM (inactive)	26.1 µM (inactive)	65 µM (inactive)	39.5 µM (inactive)	48.9 µM (inactive)	> 100 µM (inactive)	39 µM (inactive)	14.6 µM (inactive)		27.7 µM (inactive)	90.4 µM (inactive)	60.8 µM (inactive)
CCOC(=O)/C=C\c1c(Cl)n(-c2ccccc2)c(=O)n(-c2ccccc2)c1=O	26.5 µM (inactive)	30 µM (inactive)	18.3 µM (inactive)	18.8 µM (inactive)	20.7 µM (inactive)	4.63 µM (inactive)	20.2 µM (inactive)	17.4 µM (inactive)	21.2 µM (inactive)	19 µM (inactive)	19.5 µM (inactive)		18.5 µM (inactive)	21.3 µM (inactive)	18.8 µM (inactive)	21.9 µM (inactive)	> 10 µM (inactive)	18.9 µM (inactive)	21.9 µM (inactive)	18.1 µM (inactive)
CC(=O)OCC1OC(n2c(C)c(C(C)=O)c(-c3cccc4ccccc34)c(C#N)c2=S)C(OC(C)=O)C(OC(C)=O)C1OC(C)=O (stereo not drawn)	> 100 µM (inactive)	> 100 µM (inactive)	> 100 µM (inactive)	< 0.01 µM (active)	> 100 µM (inactive)	> 100 µM (inactive)	> 100 µM (inactive)	> 100 µM (inactive)	> 100 µM (inactive)	> 100 µM (inactive)	> 100 µM (inactive)	28.7 µM (inactive)	> 100 µM (inactive)	> 100 µM (inactive)	> 100 µM (inactive)	> 100 µM (inactive)		> 100 µM (inactive)	> 100 µM (inactive)	> 100 µM (inactive)
COc1ccc2c(c1OC)C(Br)CCC(Br)(Br)C2=O (stereo not drawn)	14.1 µM (inactive)	6 µM (inactive)	14.6 µM (inactive)	4.81 µM (inactive)	14 µM (inactive)	5.27 µM (inactive)	13.8 µM (inactive)	7.45 µM (inactive)	16.3 µM (inactive)	4.43 µM (inactive)	1.78 µM (inactive)	2.47 µM (inactive)	3.02 µM (inactive)	16 µM (inactive)	12.4 µM (inactive)		4.81 µM (inactive)	13.1 µM (inactive)	17.6 µM (inactive)	6.79 µM (inactive)
O=c1[nH]c(Br)nc2[nH]nnc12	10.4 µM (inactive)	85.5 µM (inactive)	15.9 µM (inactive)	11.7 µM (inactive)	11 µM (inactive)	5.52 µM (inactive)	26.2 µM (inactive)	8.79 µM (inactive)	34.7 µM (inactive)	> 100 µM (inactive)	7.08 µM (inactive)	68.9 µM (inactive)	> 100 µM (inactive)	> 100 µM (inactive)	14.1 µM (inactive)	7.55 µM (inactive)	17.9 µM (inactive)		72.8 µM (inactive)	54.6 µM (inactive)
